Reference: PubChem BioAssay (NCI)
“And” between values parts separate entries of the source, which are not always exact repeats. Identical values can stand only once.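 Grown in 96-well plates, cells were treated for 48 hours with each compound at five concentrations. Insufficient inhibition: endpoint recorded as highest concentration tested. The concentration for 50% growth inhibition is given as GI50. TGI is the concentration that stops growth completely.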

Experiments:
Test in all cases: DTP human tumour cell line panel, 48 h
IGROV1 ovarian = tested on: IGROV1 ovarian
786-0 renal = tested on: 786-0 renal
OVCAR-4 ovarian = tested on: OVCAR-4 ovarian
COLO 205 colon = tested on: COLO 205 colon
NCI-H226 lung = tested on: NCI-H226 lung
NCI-H460 lung = tested on: NCI-H460 lung
KM12 colon = tested on: KM12 colon
LOX IMVI melanoma = tested on: LOX IMVI melanoma
OVCAR-5 ovarian = tested on: OVCAR-5 ovarian
SR leukemia = tested on: SR leukemia

| SMILES | GI50 (IGROV1 ovarian) [µM] | TGI (IGROV1 ovarian) | GI50 (786-0 renal) | TGI (786-0 renal) | GI50 (OVCAR-4 ovarian) [µM] | TGI (OVCAR-4 ovarian) [µM] | GI50 (COLO 205 colon) | TGI (COLO 205 colon) [µM] | GI50 (NCI-H226 lung) | TGI (NCI-H226 lung) | GI50 (NCI-H460 lung) [µM] | TGI (NCI-H460 lung) [µM] | GI50 (KM12 colon) | TGI (KM12 colon) | GI50 (LOX IMVI melanoma) [µM] | TGI (LOX IMVI melanoma) | GI50 (OVCAR-5 ovarian) | TGI (OVCAR-5 ovarian) | GI50 (SR leukemia) [µM] | TGI (SR leukemia) [µM] |
| --- | --- | --- | --- | --- | --- | --- | --- | --- | --- | --- | --- | --- | --- | --- | --- | --- | --- | --- | --- | --- |
| COc1ccc(C2SCC(=O)N2NC(=O)Nc2c(C)nc3ccccn23)cc1 (configuration not stated) | 38.6 | > 100 µM | 21.8 µM | 61.6 µM | > 100 | > 100 | > 100 µM | > 100 | 42.8 µM | > 100 µM | 90.5 | > 100 | > 100 µM | > 100 µM | 27.1 | > 100 µM | 28.9 µM | > 100 µM |  |  |
| O=C(/C(=C/c1cccc([N+](=O)[O-])c1)c1ccccc1)c1ccccc1 | 3.38 | 27.8 µM | 4.8 µM | 18.3 µM | 4.26 | 16 | 3.82 µM | 13.3 | 3.08 µM | 11.5 µM | 3.32 | 12.6 | 3.7 µM | 13.1 µM |  |  | 5.56 µM | 25.8 µM | 2.7 | > 100 |
| CCc1oc2ccccc2c1C(=O)c1cc(I)c(O)c(I)c1 |  |  | 3.76 µM | 15.3 µM | 5.07 | 18.1 | 5.05 µM | 18.7 | 10.6 µM | 27 µM | 2.63 | 8.94 | 1.62 µM | 13 µM | 3.51 | 17.1 µM | 11.4 µM | 25.1 µM | 0.568 | 17.9 |
| CCC(=O)c1c(C(F)(F)F)n([O-])c2ccc(C)cc2[n+]1=O |  |  | 22 µM | > 50 µM | 24 | > 50 | 5.24 µM | 19.6 | 10.8 µM | > 50 µM | 3.95 | 18.3 | 4.99 µM | 14.9 µM | 7.47 | 17.9 µM | 3.43 µM | 41.6 µM | 0.675 | > 50 |
| COc1ccc(/C=C\c2cc(OC)c(OC)c(OC)c2)cc1OC(=O)NCCN(C)C | 0.00139 | > 100 µM |  | > 34.8 µM |  |  | 0.187 µM | 4.69 |  | 0.0464 µM |  | 0.00485 | < 0.0001 µM |  |  | > 100 µM |  |  |  |  |
| CC1=N/C(=C\c2cccc([N+](=O)[O-])c2)C(=O)O1 |  | > 100 µM |  | > 100 µM |  |  |  | > 100 |  |  |  | > 100 |  | > 100 µM |  |  |  | > 100 µM |  |  |
| Cc1nc(-c2ccccc2)c(-c2ccccc2)s1 |  | 95.3 µM |  | 50.8 µM |  | > 100 |  | 38.8 |  | 42.7 µM |  | 42.2 |  | 71.2 µM |  | 37.1 µM |  | > 100 µM |  |  |
| COc1ccc(/C(Cl)=C(\C=O)c2ccc([N+](=O)[O-])cc2)cc1 |  | 53.3 µM |  | 31.6 µM |  | 57.3 |  | 40.4 |  | 46.9 µM |  | > 100 |  | 11.4 µM |  | > 48.1 µM |  | > 100 µM |  |  |
| CC(C)c1ccc(C(c2ccc(OCC(=O)O)cc2)c2ccc(C(C)C)cc(=O)c2O)c(O)c(=O)c1 |  | 21 µM |  | 22 µM |  | 12.8 |  | > 100 |  |  |  | 8.34 |  |  |  | 14.8 µM |  |  |  |  |
| N.N.O=C([O-])P(=O)([O-])[O-].[Na+].[Pt+4] | > 100 | > 100 µM | > 100 µM | > 100 µM | > 100 | > 100 | > 100 µM | > 100 |  |  | > 100 | > 100 | > 100 µM | > 100 µM |  |  |  |  |  |  |
| CCOC(=O)CCn1[nH]c(=O)c(Cl)c(Cl)c1=O |  | > 100 µM |  | > 100 µM |  | > 100 |  | > 100 |  | > 100 µM |  | > 100 |  |  |  | > 100 µM |  | > 100 µM |  |  |
| CCc1ccc(Nc2ccc([N+](=O)[O-])cc2[N+](=O)[O-])cc1 |  | > 100 µM |  | > 100 µM |  | > 100 |  |  |  | 99.8 µM |  | > 100 |  | > 100 µM |  |  |  | > 100 µM |  |  |
| COc1ccc(CNc2nc3cc(C(F)(F)F)ccc3nc2C)cc1OC |  | > 100 µM |  | 58.9 µM |  | 43.1 |  | > 100 |  |  |  | > 100 |  | 83 µM |  | 68.7 µM |  | > 100 µM |  |  |
| COc1ccc2c3c(coc13)C(CCC(=O)O)CC2 (configuration not stated) |  | > 100 µM |  | > 100 µM |  | > 100 |  | > 100 |  |  |  | > 100 |  |  |  | > 100 µM |  |  |  |  |
| C=C[C@H]1C[C@@H]2C[C@@H]3[C@H]4C/C=C\C(=O)NCCCC5NC(=O)C(=C(O)/C=C/[C@@H]4CC(=O)[C@H]3[C@@H]2[C@H]1C)C5=O (some centres not stated) | 0.212 | 0.434 µM | 0.173 µM | 0.329 µM | 0.21 | 0.413 | 1.78 µM | 3.21 | 0.166 µM | 0.379 µM | 0.348 | 1.2 | 1.74 µM | 3.33 µM | 0.187 | 0.368 µM | 0.436 µM | 1.72 µM |  |  |
| COc1cc2c(c(OC)c1)C1(CC(CC#N)C2)SCCS1 (configuration not stated) |  | > 100 µM |  | > 100 µM |  | > 100 |  | > 100 |  | > 100 µM |  | > 100 |  | > 100 µM |  |  |  |  |  |  |
| COC1=CC2(C=CC1=O)c1cc(OC)c(OC)cc1CCN2C(=O)c1ccccc1 (configuration not stated) |  | > 100 µM |  | > 100 µM |  |  |  | > 100 |  | > 100 µM |  |  |  | > 100 µM |  | > 100 µM |  |  |  |  |
| COC(C(O)c1ccc2c(c1)OCO2)P(=O)(c1ccccc1)c1ccccc1 (configuration not stated) |  | > 100 µM |  | > 100 µM |  | 30.9 |  |  |  | > 100 µM |  | > 100 |  | > 100 µM |  |  |  | > 100 µM |  | > 100 |
| NCCCn1c2c(c3ccc([N+](=O)[O-])cc3c1=O)C(=O)c1cc(Br)ccc1-2 | 0.0754 | 0.225 µM and 0.0325 µM | 0.0435 µM and 0.0643 µM | 0.173 µM and 0.387 µM | 0.102 |  | 0.0946 µM and 0.79 µM | 2.34 | 0.0451 µM and 0.011 µM | 0.326 µM and 0.0684 µM | 0.000746 | 0.113 | 0.0834 µM and 0.0185 µM | 0.353 µM and 0.191 µM | 0.00683 | 0.109 µM and 0.0227 µM | 0.197 µM and 0.14 µM | 0.409 µM and 0.688 µM |  |  |
| Fc1ccc(C2SCc3nc4ccccc4n32)cc1Cl (configuration not stated) |  |  |  | > 100 µM |  | > 100 |  | 28.6 |  | 52 µM |  | > 100 |  | 39.8 µM |  | 40.3 µM |  | 66.6 µM |  | > 100 |
